Source: ChEMBL document CHEMBL1932991, “Novel ATP competitive MK2 inhibitors with potent biochemical and cell-based activity throughout the series” (Bioorg Med Chem Lett, 2012)

Assays:
THP-1 = assay: Inhibition of LPS-induced TNFalpha production in human THP1 cells pre-incubated for 30 mins prior to LPS-induction measured after 4 hrs by ELISA; format: functional, cell-based
[1] = target: T1, MAP kinase-activated protein kinase 2 (Homo sapiens, UniProt P49137); assay: Inhibition of MK2 using Fluo-betaA-11A NeoMPS as substrate pre-incubated for 30 mins before substrate addition measured after 2 hrs by IMAP assay
[2] = Permeability of the compound by PAMPA; format: ADME; details: for Papp: read-out: permeability
[3] = target: T1, MAP kinase-activated protein kinase 2; assay: Inhibition of MK2-mediated HSP27 phosphorylation in LPS-stimulated human THP1 cells pre-incubated for 60 mins prior to LPS-induction measured after 60 mins by multi-spot assay; format: cell-based, THP-1
PBMC = assay: Inhibition of LPS-induced TNFalpha production in human PBMC pre-incubated for 30 mins prior to LPS-induction measured after 4 hrs by ELISA; format: functional, cell-based
[4] = Plasma protein binding in human; format: ADME, cell-free; details: read-out: PPB (converted)
[5] = Dissociation constant, pKa of the compound at pH 7.4; format: physicochemical

T1 sequence (P49137 whole entry): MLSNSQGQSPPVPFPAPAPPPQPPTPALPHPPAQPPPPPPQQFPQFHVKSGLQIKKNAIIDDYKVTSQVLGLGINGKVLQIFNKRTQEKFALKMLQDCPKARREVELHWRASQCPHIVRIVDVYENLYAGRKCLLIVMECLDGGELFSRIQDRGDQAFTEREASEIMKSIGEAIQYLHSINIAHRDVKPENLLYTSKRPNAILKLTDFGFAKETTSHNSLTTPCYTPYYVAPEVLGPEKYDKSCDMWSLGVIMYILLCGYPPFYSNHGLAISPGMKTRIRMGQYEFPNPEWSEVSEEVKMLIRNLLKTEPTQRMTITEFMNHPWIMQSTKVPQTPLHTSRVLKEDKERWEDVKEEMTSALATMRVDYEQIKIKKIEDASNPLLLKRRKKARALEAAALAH

Structure (SMILES) | EC50 (THP-1; thp-1) | EC50 [1] | Papp [2] | EC50 [3] | EC50 (THP-1; Homo sapiens, THP-1) | fraction unbound [4] | pKa [5] | permeability [2] | EC50 (PBMC; Homo sapiens, PBMC) | EC50 (PBMC; pbmc)
Cc1ccc(C(=O)Nc2cc(-c3cc4c([nH]3)C3(CCCNC3)CNC4=O)ccn2)cc1C (stereo in doubt; 3dS1) | 650 nM | 5.5 nM |  |  |  |  |  |  |  | 
O=C(Nc1cc(-c2cc3c([nH]2)C2(CCCNC2)CNC3=O)ccn1)c1ccccn1 (racemic) |  | 4.2 nM | 0.2 ×10⁻⁶ cm/s | 660 nM | 480 nM |  |  |  | 130 nM | 
O=C(Nc1cc(-c2cc3c([nH]2)C2(CCCNC2)CNC3=O)ccn1)c1cccc(F)c1 (racemic) |  | 6.2 nM | 1.9 ×10⁻⁶ cm/s |  | 560 nM |  |  |  | 30 nM | 
Cc1ccc(C(=O)Nc2cc(-c3cc4c([nH]3)C3(CCCNC3)CNC4=O)ccn2)cc1C (single isomer, unassigned; stereoisomer 2) | 8500 nM | 32 nM | 1 ×10⁻⁶ cm/s | 5300 nM |  |  |  |  |  | 1200 nM
O=C(Nc1cc(-c2cc3c([nH]2)C2(CCNC2)CNC3=O)ccn1)c1ccccn1 (racemic) |  | 4.1 nM |  | 660 nM | 3900 nM |  |  |  |  | 
O=C(Nc1cc(-c2cc3c([nH]2)C2(CCCNC2)CNC3=O)ccn1)c1cccc(C(F)(F)F)c1 (racemic) |  | 3.3 nM |  | 590 nM | 850 nM |  |  |  | 140 nM | 
O=C(Nc1nccc(-c2cc3c([nH]2)C2(CCNCC2)CNC3=O)n1)c1ccc(F)cc1 |  | 15 nM |  |  | 7900 nM |  |  |  |  | 
O=C(Nc1cc(-c2cc3c([nH]2)C2(CCCNC2)CNC3=O)ccn1)c1ccc2ccccc2c1 (single isomer, unassigned) |  | 129 nM |  |  |  | 0.004 | 8.2 |  |  | 
O=C(Nc1cc(-c2cc3c([nH]2)C2(CCCNC2)CNC3=O)ccn1)c1ccc(F)cc1 (single isomer, unassigned; isomer 2) | > 10000 nM | 31 nM |  | 7400 nM |  |  |  |  |  | 1600 nM
CN1CCC2(CC1)CNC(=O)c1cc(-c3ccnc(NC(=O)c4cccc(OC(F)(F)F)c4)c3)[nH]c12 |  | 2.7 nM |  | 830 nM | 1000 nM | 0.027 | 8.4 |  | 50 nM | 
O=C(Nc1nccc(-c2cc3c([nH]2)C2(CCNCC2)CNC3=O)n1)c1ccc2ccccc2c1 |  | 5.1 nM |  |  | 3400 nM |  |  |  |  | 
O=C(Nc1cc(-c2cc3c([nH]2)C2(CCCNC2)CNC3=O)ccn1)c1ccc(F)cc1 (racemic) | 320 nM | 8.9 nM |  | 870 nM |  |  |  | 0.5 ×10⁻⁶ cm/s |  | 
Cc1ccc(C(=O)Nc2cc(-c3cc4c([nH]3)C3(CCCNC3)CNC4=O)ccn2)cc1C (racemic) | 460 nM | 8.1 nM |  | 690 nM |  |  |  |  |  | 40 nM
O=C(Nc1cc(-c2cc3c([nH]2)C2(CCCNC2)CNC3=O)ccn1)c1cccc(OC(F)(F)F)c1 (racemic) |  | 11 nM |  | 610 nM | 620 nM | 0.013 | 8.2 |  | 200 nM | 
O=C(Nc1cc(-c2cc3c([nH]2)C2(CCCNC2)CNC3=O)ccn1)c1ccc(C(F)(F)F)cc1 (racemic) |  | 9.1 nM |  | 1200 nM | 1300 nM |  |  |  | 480 nM | 
Cc1ccc(C(=O)Nc2nccc(-c3cc4c([nH]3)C3(CCNCC3)CNC4=O)n2)cc1C |  | 3.1 nM |  |  | 3400 nM |  |  |  |  | 
O=C(Nc1cc(-c2cc3c([nH]2)C2(CCCNC2)CNC3=O)ccn1)c1ccc2ccccc2c1 (racemic) | 780 nM | 7.6 nM |  | 1100 nM |  |  |  |  |  | 70 nM
O=C1NCC2(CCCNC2)c2[nH]c(-c3ccnc(NC(=O)c4cccc5ccccc45)c3)cc21 (racemic) |  | 5.1 nM | 0.1 ×10⁻⁶ cm/s | 1100 nM | 220 nM |  |  |  | 390 nM | 
O=C1NCC2(CCNCC2)c2[nH]c(-c3ccnc(NC(=O)c4cccc5ccccc45)n3)cc21 |  | 14 nM |  |  | > 10000 nM |  |  |  |  | 
CN1CCC2(CC1)CNC(=O)c1cc(-c3ccnc(NC(=O)c4ccc5ccccc5c4)c3)[nH]c12 |  | 2.6 nM |  | 730 nM | 1100 nM | 0.005 | 8.3 |  | 70 nM | 

Further compounds by falling EC50 [1], results first:

EC50 (THP-1; thp-1) | EC50 [1] | Papp [2] | EC50 [3] | EC50 (THP-1; Homo sapiens, THP-1) | fraction unbound [4] | pKa [5] | permeability [2] | Structure (SMILES) | EC50 (PBMC; Homo sapiens, PBMC) | EC50 (PBMC; pbmc)
 | 2.6 nM |  | > 10000 nM | > 10000 nM |  |  |  | O=C(Nc1cc(-c2cc3c([nH]2)C2(CCNCC2)CNC3=O)ccn1)c1ccncc1 | 2600 nM | 
 | 2.5 nM | 6.3 ×10⁻⁶ cm/s | 590 nM | 1100 nM |  |  |  | O=C(Nc1cc(-c2cc3c([nH]2)C2(CCCNC2)CNC3=O)ccn1)c1cc(F)cc(F)c1 (racemic) | 140 nM | 
 | 2.5 nM |  | 530 nM | 510 nM |  |  |  | O=C(Nc1cc(-c2cc3c([nH]2)C2(CCCNC2)CNC3=O)ccn1)c1ccc2ccccc2c1 (single isomer, unassigned; stereoisomer 1) |  | 170 nM
 | 2.5 nM |  | 640 nM | 540 nM |  |  |  | CN1CCC2(CC1)CNC(=O)c1cc(-c3ccnc(NC(=O)c4cccc(F)c4)c3)[nH]c12 | 30 nM | 
310 nM | 2.4 nM |  | 320 nM |  |  |  | 1.1 ×10⁻⁶ cm/s | O=C(Nc1cc(-c2cc3c([nH]2)C2(CCCNC2)CNC3=O)ccn1)c1ccc(F)cc1 (stereo in doubt; 6dS1) |  | 70 nM
 | 2.3 nM |  | 920 nM | 720 nM |  |  |  | Cc1ccc(C(=O)Nc2cc(-c3cc4c([nH]3)C3(CCN(C)CC3)CNC4=O)ccn2)cc1C |  | 
 | 1.9 nM | 0.6 ×10⁻⁶ cm/s | 480 nM | 1100 nM |  |  |  | O=C(Nc1cc(-c2cc3c([nH]2)C2(CCNC2)CNC3=O)ccn1)c1cccc(F)c1 (racemic) | 170 nM | 
 | 1.6 nM |  | 400 nM | 690 nM | 0.017 | 8.4 |  | O=C(Nc1cc(-c2cc3c([nH]2)C2(CCNC2)CNC3=O)ccn1)c1cccc(OC(F)(F)F)c1 (racemic) | 650 nM | 
 | 1.6 nM |  | 3700 nM | 1300 nM |  |  |  | O=C(Nc1cc(-c2cc3c([nH]2)C2(CCNCC2)CNC3=O)ccn1)c1ccc(F)cc1 | 1400 nM | 
 | 1.6 nM |  | 1300 nM | 660 nM |  |  |  | O=C(Nc1cc(-c2cc3c([nH]2)C2(CCNCC2)CNC3=O)ccn1)c1ccc(C(F)(F)F)cc1 | 1600 nM | 
 | 1.5 nM |  | 130 nM | 80 nM | 0.042 | 9.1 |  | O=C(Nc1cc(-c2cc3c([nH]2)C2(CCNCC2)CNC3=O)ccn1)c1cccc(OC(F)(F)F)c1 | 160 nM | 
 | 1.4 nM |  | 550 nM | 720 nM |  |  |  | O=C(Nc1cc(-c2cc3c([nH]2)C2(CCNCC2)CNC3=O)ccn1)c1ccccn1 | 260 nM | 
 | 1.3 nM |  | 840 nM | 1100 nM |  |  |  | O=C(Nc1cc(-c2cc3c([nH]2)C2(CCNC2)CNC3=O)ccn1)c1ccc(F)cc1 (racemic) | 200 nM | 
 | 1.1 nM | 0.6 ×10⁻⁶ cm/s | 680 nM | 780 nM |  |  |  | O=C(Nc1cc(-c2cc3c([nH]2)C2(CCNCC2)CNC3=O)ccn1)c1cccc(F)c1 | 150 nM | 
 | 1 nM |  | 350 nM | 230 nM |  |  |  | Cc1ccc(C(=O)Nc2cc(-c3cc4c([nH]3)C3(CCNCC3)CNC4=O)ccn2)cc1C | 890 nM | 
 | 0.96 nM |  | 520 nM | 490 nM |  |  |  | O=C1NCC2(CCNCC2)c2[nH]c(-c3ccnc(NC(=O)c4cccc5ccccc45)c3)cc21 | 650 nM | 
 | 0.72 nM |  | 280 nM | 320 nM | 0.003 | 9.2 |  | O=C(Nc1cc(-c2cc3c([nH]2)C2(CCNCC2)CNC3=O)ccn1)c1ccc2ccccc2c1 | 230 nM | 
 | 0.71 nM | 0.2 ×10⁻⁶ cm/s | 240 nM | 340 nM |  |  |  | Cc1ccc(C(=O)Nc2cc(-c3cc4c([nH]3)C3(CCNC3)CNC4=O)ccn2)cc1C (racemic) | 150 nM | 
 | 0.62 nM |  | 390 nM | 1700 nM | 0.002 | 8.5 |  | O=C(Nc1cc(-c2cc3c([nH]2)C2(CCNC2)CNC3=O)ccn1)c1ccc2ccccc2c1 (racemic) |  | 
